In patent US20030194719A1, “Tpst-assay for diagnosis of autism and related disorders” (priority 2000, published 2003):

Tests used:
[1] = system: Tyrosyl protein sulphotransferase (TPST); experiment: TPST activity assay in platelets from normal healthy blood donors (35S transfer from PAPS35 to EAY substrate); assay type: biochemical, human; conditions: for TPST activity (0 μM = 100.0): Table 5; for TPST activity (0 μM = 100): Table 7
Description: The activity of sulphotransferases can be measured by monitoring the transfer of ^35S from the sulphate donor, PAPS^35, to the product, in this case the synthetic tyrosine substrate EAY. This assay uses platelets from control subjects (n=5) and those patients suffering from a particular disorder, selected from autism (n=14), irritable bowel syndrome (n=3) schizophrenia (gluten-sensitive)(n=4), food allergy (gluten, milk) (n=3) and depression (n=2).
Reaction mixtures were incubated for 50 minutes at 37° C. and reactions were stopped by barium acetate. Unreacted sulphate, proteins and nucleotides were precipitated by zinc sulphate and barium hydroxide. Within the reaction there is a positive and negative control. The positive control is termed 100%, and represents the total amount of radioactivity present in the hot PAPS^35 sample. The negative control is the “no-enzyme” reaction, this represents the amount of sulphate transferred to the product when no enzyme is present, i.e. the chemical reaction. The blank for the reaction is made up without PAPS^35 and without enzyme.
10 ml of whole blood was taken from patients and the blood cells removed. The remaining plasma was centrifuged at 8000 g for 5 mins to sediment the platelets. This platelet pellet was resuspended in 5 ml 10 mM phosphate buffered saline (PBS) containing 10 mM EDTA, recentrifuged at 2000 g at 4° C. for 30 min. […] The platelets were sonicated for 12×10 second bursts at 4° C. The platelet sonicates were stored in 1 ml portions at −70° C. prior to use.
Substrate: 10 μl EAY (300 μM; poly (Glu, Ala, Tyr) 6:3:1) was used in each test assay, to give a final concentration in the reaction of 20 μM. This solution was made up in MES reaction buffer.
Reaction mixtures were made up as in the table above. To begin the assay, platelet homogenate (20 μl) and PAPS^35 (20 μl) were added at 30-second intervals to a final volume of 150 μl. The reaction mixture was then incubated at 37° C. for 40 min. The reaction is stopped by the addition of 200 μl-barium acetate (0.1 M) and the tubes were vortexed and placed on ice for […].
Unreacted sulphate was then precipitated by the addition of 0.1 M zinc sulphate (200 μl) and 0.1 M barium hydroxide (200 μl). The tubes were vortexed and centrifuged at 6500 rpm for 3 min.
Repeat step 3. Supernatant (500 μl) was then added to scintillation fluid (3.5 ml) and S^35 was counted in a Phillips scintillation counter.
Various compounds were investigated, including fatty acids, flavonoids and amino acids. […] Compounds were tested at the concentrations shown and were dissolved in buffer where possible or ethanol if not.
In the Example shown in Table 6 and FIG. 6 compounds were all dissolved in DMSO and tested at 25 μM.

TPST [2] = conditions: PC12 cells; cited from earlier work
TPST [3] = conditions: stomach and liver of ethanol-fed male Sprague-Dawley rats; cited from earlier work
TPST [4] = conditions: human alcoholics; cited from earlier work
[5] = Table 6, 25 μM, dissolved in DMSO, human platelets
[6] = Example 2, concentrations as in Table 2, normal human platelets
[7] = Table 2, 100 μM, normal human platelets

Oc1cc(O)c2c(c1)O[C@H](c1ccc(O)c(O)c1)[C@@H](O)C2 [(+)-Catechin]
% Control TPST Activity [1, 5]: 74%

CCCCCCCC/C=C\CCCCCCCC(=O)O [Oleic Acid]
Effect on TPST activity (in words) [1, 6]: slight stimulation of TPST activity
% Control TPST Activity [1, 7]: 111%
TPST activity (0 μM = 100.0) ([1]; fatty acid 0.5 μM): 74.5
TPST activity (0 μM = 100.0) ([1]; fatty acid 1 μM): 61.5
TPST activity (0 μM = 100.0) ([1]; fatty acid 2.5 μM): 69.2
TPST activity (0 μM = 100.0) ([1]; fatty acid 5 μM): 51.4
TPST activity (0 μM = 100.0) ([1]; fatty acid 10 μM): 60.5
TPST activity (0 μM = 100.0) ([1]; fatty acid 25 μM): 56.2
TPST activity (0 μM = 100.0) ([1]; fatty acid 50 μM): 54.3
TPST activity (0 μM = 100.0) ([1]; fatty acid 100 μM): 29.5

NC(=O)CC[C@H](N)C(=O)O [Glutamine]
Effect on TPST activity (in words) [1, 6]: increased activity
% Control TPST Activity [1, 7]: 125%

CCCCC[C@H](O)/C=C/[C@H]1[C@H](O)CC(=O)[C@@H]1C/C=C\CCCC(=O)O [PGE2, prostaglandin E2]
Effect on TPST activity (in words) [1, 6]: stimulation of activity
% Control TPST Activity [1, 7]: 124%

O=c1cc(-c2cc(O)cc(O)c2)oc2cc(O)ccc12 [3′,5′,7 OH Flavone]
% Control TPST Activity [1, 5]: 32%

O=c1c(O)c(-c2ccccc2)oc2ccccc12 [3 OH Flavone]
% Control TPST Activity [1, 5]: 96%
TPST activity (0 μM = 100) ([1]; flavonoid 0.5 μM): 79
TPST activity (0 μM = 100) ([1]; flavonoid 1 μM): 92.6
TPST activity (0 μM = 100) ([1]; flavonoid 2.5 μM): 90.7
TPST activity (0 μM = 100) ([1]; flavonoid 5 μM): 83
TPST activity (0 μM = 100) ([1]; flavonoid 10 μM): 97.9
TPST activity (0 μM = 100) ([1]; flavonoid 25 μM): 101.1
TPST activity (0 μM = 100) ([1]; flavonoid 50 μM): 95.5
TPST activity (0 μM = 100) ([1]; flavonoid 100 μM): 94.4

[Mn+2] [Manganese]
Effect on TPST activity (TPST [2]): suppresses TPST activity

O=C(O)CCC(=O)O [Succinate]
Effect on TPST activity (in words) [1, 6]: decreasing sulphation
% Control TPST Activity [1, 7]: 59%

CCCC(=O)O [Butyric Acid]
% Control TPST Activity [1, 7]: 125%
TPST activity (0 μM = 100.0) ([1]; fatty acid 0.5 μM): 137.6
TPST activity (0 μM = 100.0) ([1]; fatty acid 1 μM): 96.8
TPST activity (0 μM = 100.0) ([1]; fatty acid 2.5 μM): 114.3
TPST activity (0 μM = 100.0) ([1]; fatty acid 5 μM): 94.6
TPST activity (0 μM = 100.0) ([1]; fatty acid 10 μM): 99.2
TPST activity (0 μM = 100.0) ([1]; fatty acid 25 μM): 76.1
TPST activity (0 μM = 100.0) ([1]; fatty acid 50 μM): 86.4
TPST activity (0 μM = 100.0) ([1]; fatty acid 100 μM): 62.2

O=c1cc(-c2ccccc2)oc2cc(O)c(O)c(O)c12 [5′,6′,7′ OH Flavone]
% Control TPST Activity [1, 5]: 1%

O=c1cc(-c2ccc(O)c(O)c2)oc2ccccc12 [3′,4′ OH Flavone]
% Control TPST Activity [1, 5]: 55%

N[C@@H](Cc1ccccc1)C(=O)O [Phenylalanine]
Effect on TPST activity (in words) [1, 6]: decreased TPST activity in a dose dependent fashion
% Control TPST Activity ([1]; Table 2, 50 μM, normal human platelets): 79%
% Control TPST Activity ([1]; Table 2, 1000 μM, normal human platelets): 40%

O=c1cc(-c2ccc(O)cc2)oc2cc(O)cc(O)c12 [Apigenin]
% Control TPST Activity [1, 5]: 31%

CC/C=C\C/C=C\C/C=C\C/C=C\C/C=C\C/C=C\CCC(=O)O [DHA, docosahexanoic acid]
TPST activity (0 μM = 100.0) ([1]; fatty acid 0.5 μM): 91.8
TPST activity (0 μM = 100.0) ([1]; fatty acid 1 μM): 105.2
TPST activity (0 μM = 100.0) ([1]; fatty acid 2.5 μM): 115.9
TPST activity (0 μM = 100.0) ([1]; fatty acid 5 μM): 109.6
TPST activity (0 μM = 100.0) ([1]; fatty acid 10 μM): 97.0
TPST activity (0 μM = 100.0) ([1]; fatty acid 25 μM): 117.8
TPST activity (0 μM = 100.0) ([1]; fatty acid 50 μM): 119.4
TPST activity (0 μM = 100.0) ([1]; fatty acid 100 μM): 103.3

CCCCC/C=C\C/C=C\CCCCCCCC(=O)O [Linoleic Acid]
% Control TPST Activity [1, 7]: 113%

O=c1cc(-c2cc(O)c(O)c(O)c2O)oc2cc(O)ccc12 [2′,3′,4′,5′,7 OH Flavone]
% Control TPST Activity [1, 5]: 38%

CCCCC/C=C\C/C=C\C/C=C\CCCCC(=O)O [GLA, gamma linolenic acid]
TPST activity (0 μM = 100.0) ([1]; fatty acid 10 μM): 78.8
TPST activity (0 μM = 100.0) ([1]; fatty acid 25 μM): 72.6
TPST activity (0 μM = 100.0) ([1]; fatty acid 50 μM): 71.3
TPST activity (0 μM = 100.0) ([1]; fatty acid 100 μM): 61.2

O=C(O)CC(O)(CC(=O)O)C(=O)O [Citrate]
Effect on TPST activity (in words) [1, 6]: increasing activity
% Control TPST Activity [1, 7]: 113%

CCO [Ethanol]
Effect on TPST activity (in words) [1, 6]: stimulation of activity
% Control TPST Activity ([1]; Table 2, 0.4%, normal human platelets): 177%
Increase of TPST level (TPST [3]): over three-fold
TPST enzyme activity versus normal individuals (TPST [4]): two- to three-fold higher

O=c1c(-c2ccc(O)c(O)c2)coc2cc(O)ccc12 [3′,4′,7 OH Isoflavone]
% Control TPST Activity [1, 5]: 17%

O=c1c(-c2ccc(O)cc2)coc2cc(O)cc(O)c12 [Genistein]
Effect on TPST activity (in words) ([1]; Example 2, 100 μM): inhibitory effect on TPST activity
Effect on TPST activity (in words) ([1]; Example 3, 25 μM, platelets): stimulation of TPST activity
Effect on TPST activity (in words) ([1]; Example 3, 25 μM, platelets, listed as genistein): TPST enhancing effect
% Control TPST Activity [1, 7]: 74%
% Control TPST Activity [1, 5]: 117%
TPST activity (0 μM = 100) ([1]; flavonoid 2.5 μM): 86.5
TPST activity (0 μM = 100) ([1]; flavonoid 5 μM): 83.4
TPST activity (0 μM = 100) ([1]; flavonoid 10 μM): 75.8
TPST activity (0 μM = 100) ([1]; flavonoid 25 μM): 50.9
TPST activity (0 μM = 100) ([1]; flavonoid 50 μM): 62

N[C@@H](CCC(=O)O)C(=O)O [Glutamate]
Effect on TPST activity (in words) [1, 6]: decreased activity
% Control TPST Activity [1, 7]: 67%

CCCCCC/C=C\CCCCCCCC(=O)O [Palmitoleic]
TPST activity (0 μM = 100.0) ([1]; fatty acid 10 μM): 99.5
TPST activity (0 μM = 100.0) ([1]; fatty acid 25 μM): 95.2
TPST activity (0 μM = 100.0) ([1]; fatty acid 50 μM): 93.5
TPST activity (0 μM = 100.0) ([1]; fatty acid 100 μM): 81.4

O=c1c(-c2ccc(O)cc2)coc2cc(O)ccc12 [Daidzein]
Effect on TPST activity (in words) ([1]; Example 3, 25 μM, platelets): stimulation of TPST activity
% Control TPST Activity [1, 5]: 279%
TPST activity (0 μM = 100) ([1]; flavonoid 2.5 μM): 100.2
TPST activity (0 μM = 100) ([1]; flavonoid 5 μM): 107.5
TPST activity (0 μM = 100) ([1]; flavonoid 10 μM): 181.1
TPST activity (0 μM = 100) ([1]; flavonoid 25 μM): 343.2
TPST activity (0 μM = 100) ([1]; flavonoid 50 μM): 303.1

O=c1cc(-c2ccccc2)oc2ccccc12 [Flavone]
Effect on TPST activity (in words) ([1]; Example 3, 25 μM, platelets): stimulation of TPST activity
% Control TPST Activity [1, 5]: 180%
TPST activity (0 μM = 100) ([1]; flavonoid 0.5 μM): 80.3
TPST activity (0 μM = 100) ([1]; flavonoid 1 μM): 96.4
TPST activity (0 μM = 100) ([1]; flavonoid 2.5 μM): 93.5
TPST activity (0 μM = 100) ([1]; flavonoid 5 μM): 102.3
TPST activity (0 μM = 100) ([1]; flavonoid 10 μM): 126
TPST activity (0 μM = 100) ([1]; flavonoid 25 μM): 172.8
TPST activity (0 μM = 100) ([1]; flavonoid 50 μM): 230.2
TPST activity (0 μM = 100) ([1]; flavonoid 100 μM): 307.3

O=c1c(O)c(-c2ccc(O)c(O)c2)oc2cc(O)cc(O)c12 [Quercetin]
% Control TPST Activity [1, 7]: 3%
% Control TPST Activity [1, 5]: 48%
TPST activity (0 μM = 100) ([1]; flavonoid 0.5 μM): 45.8
TPST activity (0 μM = 100) ([1]; flavonoid 1 μM): 33.7
TPST activity (0 μM = 100) ([1]; flavonoid 2.5 μM): 25.7
TPST activity (0 μM = 100) ([1]; flavonoid 5 μM): 21.1
TPST activity (0 μM = 100) ([1]; flavonoid 10 μM): 9.5
TPST activity (0 μM = 100) ([1]; flavonoid 25 μM): 5
TPST activity (0 μM = 100) ([1]; flavonoid 50 μM): 0.9
TPST activity (0 μM = 100) ([1]; flavonoid 100 μM): 0

O=c1cc(-c2ccccc2)oc2cccc(O)c12 [5 OH Flavone]
% Control TPST Activity [1, 5]: 152%

O=c1c(O)c(-c2ccc(O)cc2)oc2cc(O)cc(O)c12 [Kaempferol]
TPST activity (0 μM = 100) ([1]; flavonoid 0.5 μM): 45.2
TPST activity (0 μM = 100) ([1]; flavonoid 1 μM): 39.9
TPST activity (0 μM = 100) ([1]; flavonoid 2.5 μM): 22.3
TPST activity (0 μM = 100) ([1]; flavonoid 5 μM): 21.4
TPST activity (0 μM = 100) ([1]; flavonoid 10 μM): 14.4
TPST activity (0 μM = 100) ([1]; flavonoid 25 μM): 11
TPST activity (0 μM = 100) ([1]; flavonoid 50 μM): 7.3
TPST activity (0 μM = 100) ([1]; flavonoid 100 μM): 2.9
